Measured values reported in PubChem BioAssay AID248 (DTP/NCI, 2004).
“And” between values parts separate entries of the source, which are not always exact repeats. Equal values may be shown once. Toxic doses and inconclusive results are not listed.

Tested on: L1210 leukemia ip in BDF1 mice, survival T/C
Assay: NCI In Vivo Anticancer Drug Screen. Data for tumor model L1210 Leukemia (intraperitoneal) in B6D2F1 (BDF1) mice
Details: endpoint: mean survival time, higher = longer survival
Procedure, shortened: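 Survival endpoint. Drug-treated group vs vehicle group, expressed as T divided by C. Tumor passaged by transplantation.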

[1] = dose: 100.0 mg/kg/injection, schedule: Q01DX009 (ip), vehicle: saline with Tween-80
[2] = dose: 200.0 mg/kg/injection, schedule: Q01DX009 (ip), vehicle: saline with Tween-80
[3] = dose: 400.0 mg/kg/injection, schedule: Q01DX009 (ip), vehicle: saline with Tween-80
[4] = dose: 100.0 mg/kg/injection, schedule: Q04DX003 (ip), vehicle: saline with Tween-80
[5] = dose: 200.0 mg/kg/injection, schedule: Q04DX003 (ip), vehicle: saline with Tween-80
[6] = dose: 400.0 mg/kg/injection, schedule: Q04DX003 (ip), vehicle: saline with Tween-80
[7] = dose: 100.0 mg/kg/injection, schedule: Q01DX001 (ip), vehicle: saline
[8] = dose: 200.0 mg/kg/injection, schedule: Q01DX001 (ip), vehicle: saline
[9] = dose: 400.0 mg/kg/injection, schedule: Q01DX001 (ip), vehicle: saline
[10] = dose: 100.0 mg/kg/injection, schedule: Q04DX002 (ip), vehicle: Klucel (hydroxypropylcellulose) (HPC)
[11] = dose: 200.0 mg/kg/injection, schedule: Q04DX002 (ip), vehicle: Klucel (hydroxypropylcellulose) (HPC)

CCCC1C(CC)CC(CC)C(O)C1(CC)CO (stereo not drawn)
T/C (dose: 100.0 mg/kg/injection, schedule: Q01DX009 (ip), vehicle: other): 98 % of control
T/C (dose: 200.0 mg/kg/injection, schedule: Q01DX009 (ip), vehicle: other): 95 % of control
T/C (dose: 400.0 mg/kg/injection, schedule: Q01DX009 (ip), vehicle: other): 87 % of control

COc1ccc(Cl)cc1/C=C/C=N/NC(=O)c1cccc(C)c1O
T/C (dose: 75.0 mg/kg/injection, schedule: Q01DX001 (ip), vehicle: carboxymethylcellulose (CMC)): 86 % of control
T/C (dose: 150.0 mg/kg/injection, schedule: Q01DX001 (ip), vehicle: carboxymethylcellulose (CMC)): 89 % of control
T/C (dose: 300.0 mg/kg/injection, schedule: Q01DX001 (ip), vehicle: carboxymethylcellulose (CMC)): 86 % of control

O=C(Nc1ccc(Cl)cc1C(F)(F)F)OCCOc1ccc([N+](=O)[O-])cc1
T/C [1]: 91 % of control
T/C [2]: 94 % of control
T/C [3]: 95 % of control

N#CC(C(N)=O)n1cnc(C(N)=O)c1N (stereo not drawn)
T/C (dose: 100.0 mg/kg/injection, schedule: Q01DX001 (ip), vehicle: carboxymethylcellulose (CMC)): 97 % of control
T/C (dose: 200.0 mg/kg/injection, schedule: Q01DX001 (ip), vehicle: carboxymethylcellulose (CMC)): 94 % of control
T/C (dose: 400.0 mg/kg/injection, schedule: Q01DX001 (ip), vehicle: carboxymethylcellulose (CMC)): 96 % of control

O=C(O)c1cscc1Cc1ccccc1
T/C [4]: 90 % of control
T/C [5]: 94 % of control
T/C [6]: 95 % of control

CCOC(=O)C(Cl)C(C)(O)c1ccccc1 (stereo not drawn)
T/C (dose: 100.0 mg/kg/injection, schedule: Q04DX002 (ip), vehicle: saline with Tween-80): 95 % of control
T/C (dose: 200.0 mg/kg/injection, schedule: Q04DX002 (ip), vehicle: saline with Tween-80): 95 % of control

CCN(CC)c1ccc(/C=C\C(=O)c2ccccc2)cc1
T/C (dose: 100.0 mg/kg/injection, schedule: Q01DX009 (ip), vehicle: Klucel (hydroxypropylcellulose) (HPC)): 97 % of control
T/C (dose: 200.0 mg/kg/injection, schedule: Q01DX009 (ip), vehicle: Klucel (hydroxypropylcellulose) (HPC)): 100 % of control
T/C (dose: 400.0 mg/kg/injection, schedule: Q01DX009 (ip), vehicle: Klucel (hydroxypropylcellulose) (HPC)): 100 % of control

O=C(CBr)Nc1ccc(Cl)cc1
T/C (dose: 2.0 mg/kg/injection, schedule: Q04DX003 (ip), vehicle: Klucel (hydroxypropylcellulose) (HPC)): 96 % of control
T/C (dose: 3.12 mg/kg/injection, schedule: Q01DX009 (ip), vehicle: Klucel (hydroxypropylcellulose) (HPC)): 92 % of control
T/C (dose: 4.0 mg/kg/injection, schedule: Q04DX003 (ip), vehicle: Klucel (hydroxypropylcellulose) (HPC)): 104 % of control
T/C (dose: 6.25 mg/kg/injection, schedule: Q01DX009 (ip), vehicle: Klucel (hydroxypropylcellulose) (HPC)): 102 % of control
T/C (dose: 9.0 mg/kg/injection, schedule: Q04DX003 (ip), vehicle: Klucel (hydroxypropylcellulose) (HPC)): 100 % of control
T/C (dose: 12.5 mg/kg/injection, schedule: Q01DX009 (ip), vehicle: Klucel (hydroxypropylcellulose) (HPC)): 89 % of control
T/C (dose: 19.0 mg/kg/injection, schedule: Q04DX003 (ip), vehicle: Klucel (hydroxypropylcellulose) (HPC)): 104 % of control and 91 % of control
T/C (dose: 25.0 mg/kg/injection, schedule: Q01DX009 (ip), vehicle: Klucel (hydroxypropylcellulose) (HPC)): 89 % of control
T/C (dose: 50.0 mg/kg/injection, schedule: Q01DX001 (ip), vehicle: other): 95 % of control
T/C (dose: 100.0 mg/kg/injection, schedule: Q01DX001 (ip), vehicle: other): 101 % of control

C=CCc1c(F)c(F)c(F)c(F)c1F
T/C [4]: 97 % of control
T/C [5]: 95 % of control
T/C [6]: 98 % of control

CC(=O)Nc1ccc(C(=O)N=C(C2CCCC2)N2CCCC2)cc1
T/C [7]: 96 % of control
T/C [8]: 100 % of control
T/C [9]: 105 % of control

CCNC1=C(N2CC2)C(=O)C(NCC)=C(N2CC2)C1=O
T/C (dose: 0.04 mg/kg/injection, schedule: Q01DX009 (ip), vehicle: saline): 95 % of control and 102 % of control
T/C (dose: 0.09 mg/kg/injection, schedule: Q01DX009 (ip), vehicle: saline): 102 % of control and 111 % of control
T/C (dose: 0.09 mg/kg/injection, schedule: Q04DX003 (ip), vehicle: saline): 100 % of control and 122 % of control
T/C (dose: 0.18 mg/kg/injection, schedule: Q01DX009 (ip), vehicle: saline): 108 % of control and 120 % of control
T/C (dose: 0.18 mg/kg/injection, schedule: Q04DX003 (ip), vehicle: saline): 104 % of control and 113 % of control
T/C (dose: 0.37 mg/kg/injection, schedule: Q01DX009 (ip), vehicle: saline): 168 % of control
T/C (dose: 0.37 mg/kg/injection, schedule: Q04DX003 (ip), vehicle: saline): 113 % of control and 114 % of control
T/C (dose: 0.75 mg/kg/injection, schedule: Q01DX001 (ip), vehicle: saline): 120 % of control
T/C (dose: 0.75 mg/kg/injection, schedule: Q01DX009 (ip), vehicle: saline): 151 % of control
T/C (dose: 0.75 mg/kg/injection, schedule: Q04DX003 (ip), vehicle: saline): 120 % of control and 124 % of control
T/C (dose: 1.5 mg/kg/injection, schedule: Q01DX001 (ip), vehicle: saline): 168 % of control
T/C (dose: 1.5 mg/kg/injection, schedule: Q01DX009 (ip), vehicle: saline): 191 % of control and 212 % of control
T/C (dose: 1.5 mg/kg/injection, schedule: Q04DX003 (ip), vehicle: saline): 157 % of control
T/C (dose: 3.0 mg/kg/injection, schedule: Q01DX001 (ip), vehicle: saline): 157 % of control
T/C (dose: 3.0 mg/kg/injection, schedule: Q01DX009 (ip), vehicle: saline): 93 % of control and 117 % of control
T/C (dose: 3.0 mg/kg/injection, schedule: Q04DX003 (ip), vehicle: saline): 175 % of control
T/C (dose: 3.12 mg/kg/injection, schedule: Q04DX003 (ip), vehicle: saline): 150 % of control
T/C (dose: 6.0 mg/kg/injection, schedule: Q04DX003 (ip), vehicle: saline): 101 % of control
T/C (dose: 6.25 mg/kg/injection, schedule: Q04DX003 (ip), vehicle: saline): 95 % of control

COc1cc2c(cc1OC)C13CCN4CC5=CCOC6CC(=O)N2C1C6C5CC43O (stereo not drawn)
T/C [7]: 89 % of control
T/C [8]: 86 % of control
T/C [9]: 89 % of control

CCNC(=O)NCc1cc(C)ccc1C
T/C [10]: 111 % of control
T/C [11]: 108 % of control
T/C (dose: 400.0 mg/kg/injection, schedule: Q04DX002 (ip), vehicle: Klucel (hydroxypropylcellulose) (HPC)): 108 % of control

COc1cc2c(c(-c3c(O)c(OC)cc4c3CC[n+]3cc5c(OC)c(OC)ccc5cc3-4)c1O)CC[n+]1cc3c(OC)c(OC)ccc3cc1-2
T/C (dose: 50.0 mg/kg/injection, schedule: Q04DX002 (ip), vehicle: Klucel (hydroxypropylcellulose) (HPC)): 100 % of control
T/C [10]: 108 % of control
T/C [11]: 100 % of control

CC(CN(C)C)CN1c2ccccc2C(C)(C)c2ccccc21 (stereo not drawn)
T/C (dose: 13.8 mg/kg/injection, schedule: Q01DX001 (ip), vehicle: water): 101 % of control
T/C (dose: 27.5 mg/kg/injection, schedule: Q01DX001 (ip), vehicle: water): 104 % of control
T/C (dose: 45.0 mg/kg/injection, schedule: Q01DX001 (ip), vehicle: water): 98 % of control
T/C (dose: 50.0 mg/kg/injection, schedule: Q01DX001 (ip), vehicle: water): 91 % of control
T/C (dose: 100.0 mg/kg/injection, schedule: Q01DX001 (ip), vehicle: water): 91 % of control
T/C (dose: 200.0 mg/kg/injection, schedule: Q01DX001 (ip), vehicle: water): 91 % of control
T/C (dose: 400.0 mg/kg/injection, schedule: Q01DX001 (ip), vehicle: water): 97 % of control

[N-]=[N+]=Nc1c2ccccc2nc2ccccc12
T/C (dose: 2.0 mg/kg/injection, schedule: Q01DX001 (ip), vehicle: saline): 92 % of control
T/C (dose: 4.0 mg/kg/injection, schedule: Q01DX001 (ip), vehicle: saline): 94 % of control
T/C (dose: 8.0 mg/kg/injection, schedule: Q01DX001 (ip), vehicle: saline): 103 % of control

CCOC(=O)C(=CNc1ccc(OCCCOc2ccccc2)cc1)C(=O)OCC
T/C (dose: 100.0 mg/kg/injection, schedule: Q01DX001 (ip), vehicle: gum acacia): 98 % of control
T/C (dose: 200.0 mg/kg/injection, schedule: Q01DX001 (ip), vehicle: gum acacia): 90 % of control
T/C (dose: 400.0 mg/kg/injection, schedule: Q01DX001 (ip), vehicle: gum acacia): 102 % of control

COC(=O)Nc1cccc(OC(=O)NCC(C)C)c1
T/C [1]: 87 % of control
T/C [2]: 91 % of control
T/C [3]: 96 % of control

C=C(C)C1(CCC)C(=O)NC(=S)NC1=O
T/C (dose: 75.0 mg/kg/injection, schedule: Q01DX001 (ip), vehicle: saline): 107 % of control
T/C (dose: 150.0 mg/kg/injection, schedule: Q01DX001 (ip), vehicle: saline): 111 % of control
T/C (dose: 300.0 mg/kg/injection, schedule: Q01DX001 (ip), vehicle: saline): 116 % of control
